What was measured:
[1] = biological target: Mitogen-activated protein kinase 1 (Homo sapiens, UniProt P28482); assay: Inhibition of ERK2 (unknown origin) using GFP-ATF2 as substrate after 1 hr by TR-FRET assay
[2] = biological target: Mitogen-activated protein kinase 3 (Homo sapiens, UniProt P27361); assay: Inhibition of ERK1 (unknown origin) using GFP-ATF2 as substrate after 1 hr by TR-FRET assay
[3] = biological target: Mitogen-activated protein kinase 14 (Homo sapiens, UniProt Q16539); assay: Inhibition of p38alpha MAP kinase (unknown origin) using GFP-ATF2 as substrate after 1 hr by TR-FRET assay
Chain of Mitogen-activated protein kinase 14 (Q16539 whole entry): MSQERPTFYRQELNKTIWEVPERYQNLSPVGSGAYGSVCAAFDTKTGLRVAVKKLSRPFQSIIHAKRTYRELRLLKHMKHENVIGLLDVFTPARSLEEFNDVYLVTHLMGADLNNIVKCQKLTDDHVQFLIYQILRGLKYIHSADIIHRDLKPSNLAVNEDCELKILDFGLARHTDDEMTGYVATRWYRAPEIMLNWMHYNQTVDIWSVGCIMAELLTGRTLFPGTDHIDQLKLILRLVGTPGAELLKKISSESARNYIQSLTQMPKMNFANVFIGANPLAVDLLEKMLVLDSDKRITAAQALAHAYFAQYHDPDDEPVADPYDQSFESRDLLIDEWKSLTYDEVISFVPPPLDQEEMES

MDA-MB-435 = assay: Antiproliferative activity against human MDA-MB-435 cells assessed as inhibition of cell vaibility after 72 hrs by MTT assay; assay type: functional, cell-based; conditions: MDA-MB-435, 72 h
A549 [4] = assay: Antiproliferative activity against human A549 cells assessed as inhibition of cell vaibility after 72 hrs by MTT assay; assay type: functional, cell-based; conditions: A549, 72 h
[5] = Antiproliferative activity against human COLO205 cells assessed as inhibition of cell vaibility after 72 hrs by MTT assay; assay type: functional, cell-based; conditions: COLO 205, 72 h
HT-29 [6] = assay: Antiproliferative activity against human HT-29 cells assessed as inhibition of cell vaibility after 72 hrs by MTT assay; assay type: functional, cell-based; conditions: HT-29, 72 h
MCF7 [7] = assay: Antiproliferative activity against human MCF7 cells assessed as inhibition of cell vaibility after 72 hrs by MTT assay; assay type: functional, cell-based; conditions: MCF7, 72 h
K562 = assay: Antiproliferative activity against human K562 cells assessed as inhibition of cell vaibility after 72 hrs by MTT assay; assay type: functional, cell-based; conditions: K562, 72 h
T47D [8] = assay: Antiproliferative activity against human T47D cells assessed as inhibition of cell vaibility after 72 hrs by MTT assay; assay type: functional, cell-based
PC-3 = assay: Antiproliferative activity against human PC3 cells assessed as inhibition of cell vaibility after 72 hrs by MTT assay; assay type: functional, cell-based; conditions: PC-3, 72 h
[9] = Antiproliferative activity against human LOXIMVI cells assessed as inhibition of cell vaibility after 72 hrs by MTT assay; assay type: functional, cell-based; conditions: LOX IMVI
Vero [10] = assay: Selectivity index, ratio of IC50 for African green monkey Vero cells to IC50 for human PC3 cells; assay type: functional
HT-29 [11] = assay: Selectivity index, ratio of IC50 for African green monkey Vero cells to IC50 for human HT-29 cells; assay type: functional
Vero [12] = assay: Selectivity index, ratio of IC50 for African green monkey Vero cells to IC50 for human COLO205 cells; assay type: functional
Vero [13] = assay: Selectivity index, ratio of IC50 for African green monkey Vero cells to IC50 for human MDA-MB-435 cells; assay type: functional
MCF7 [14] = assay: Selectivity index, ratio of IC50 for African green monkey Vero cells to IC50 for human MCF7 cells; assay type: functional
Vero [15] = assay: Cytotoxicity against African green monkey Vero cells assessed as inhibition of cell viability after 72 hrs by MTT assay; assay type: cell-based; conditions: Chlorocebus sabaeus
T47D [16] = assay: Selectivity index, ratio of IC50 for African green monkey Vero cells to IC50 for human T47D cells; assay type: functional
Vero [17] = assay: Selectivity index, ratio of IC50 for African green monkey Vero cells to IC50 for human LOXIMVI cells; assay type: functional
A549 [18] = assay: Selectivity index, ratio of IC50 for African green monkey Vero cells to IC50 for human A549 cells; assay type: functional

Chain of Mitogen-activated protein kinase 1 (P28482 whole entry): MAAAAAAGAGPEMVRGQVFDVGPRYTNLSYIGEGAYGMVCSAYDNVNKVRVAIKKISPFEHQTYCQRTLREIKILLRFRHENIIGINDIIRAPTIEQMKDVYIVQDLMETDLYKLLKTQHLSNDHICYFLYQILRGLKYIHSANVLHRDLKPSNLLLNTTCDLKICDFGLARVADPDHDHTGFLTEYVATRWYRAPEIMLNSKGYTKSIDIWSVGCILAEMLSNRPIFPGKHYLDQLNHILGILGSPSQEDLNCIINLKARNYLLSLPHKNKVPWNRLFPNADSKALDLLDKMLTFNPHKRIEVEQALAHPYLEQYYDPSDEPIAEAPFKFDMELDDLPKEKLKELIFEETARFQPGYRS
Chain of Mitogen-activated protein kinase 3 (P27361 whole entry): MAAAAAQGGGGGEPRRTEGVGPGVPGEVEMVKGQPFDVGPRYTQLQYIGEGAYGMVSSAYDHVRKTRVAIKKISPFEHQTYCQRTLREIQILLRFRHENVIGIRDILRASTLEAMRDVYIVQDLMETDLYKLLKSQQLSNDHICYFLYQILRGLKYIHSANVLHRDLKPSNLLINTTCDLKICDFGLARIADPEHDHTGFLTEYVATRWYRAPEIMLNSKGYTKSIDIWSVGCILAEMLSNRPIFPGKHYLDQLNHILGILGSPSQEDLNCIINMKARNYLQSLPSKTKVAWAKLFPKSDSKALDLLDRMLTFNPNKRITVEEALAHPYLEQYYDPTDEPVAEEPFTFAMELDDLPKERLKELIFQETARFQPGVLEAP

| Compound | IC50 [1] [µM] | IC50 [2] [µM] | IC50 [3] [µM] | other results |
| --- | --- | --- | --- | --- |
| COc1cccc(NC(=O)COc2ccc(/C=C3\N=C(c4ccccc4)N(c4cccc(OC)c4)C3=O)cc2)c1 | 0.0054 | 0.057 | 0.0065 |  |
| COc1cccc(N2C(=O)/C(=C/c3ccc(OCC(=O)Nc4cccc(Cl)c4)cc3)N=C2c2ccccc2)c1 | 0.0034 | 0.089 | 0.0037 |  |
| COc1ccc(NC(=O)COc2ccc(/C=C3\N=C(c4ccccc4)N(c4cccc(OC)c4)C3=O)cc2)cc1 | 0.0043 | 0.076 | 0.0043 |  |
| COc1ccc(NC(=O)COc2ccc(/C=C3\N=C(c4ccccc4)N(c4ccc(OC)cc4)C3=O)cc2)cc1 | 0.0023 | 0.023 | 0.345 |  |
| COc1ccc(N2C(=O)/C(=C/c3ccc(OCC(=O)Nc4ccccc4)cc3)N=C2c2ccccc2)cc1 | 0.023 | 0.023 | 0.354 |  |
| COc1cccc(N2C(=O)/C(=C/c3ccc(OCC(=O)Nc4ccc(Cl)cc4)cc3)N=C2c2ccccc2)c1 | 0.0046 | 0.095 | 0.0046 |  |
| CNC(=O)c1cc(Oc2ccc(NC(=O)Nc3ccc(Cl)c(C(F)(F)F)c3)cc2)ccn1 [SORAFENIB] |  |  |  | IC50 (MDA-MB-435): 1.67 µM; IC50 (A549 [4]): 3.19 µM; IC50 [5]: 0.87 µM; IC50 (HT-29 [6]): 0.39 µM; IC50 (MCF7 [7]): 0.78 µM; IC50 (K562): 1.22 µM; IC50 (T47D [8]): 0.61 µM; IC50 (PC-3): 4.13 µM; IC50 [9]: 4.25 µM |
| COc1cccc(N2C(=O)/C(=C/c3ccc(OCC(=O)Nc4ccccc4OC)cc3)N=C2c2ccccc2)c1 | 0.0047 | 0.046 | 0.054 |  |
| COc1ccc(N2C(=O)/C(=C/c3ccc(OCC(=O)Nc4cccc(Cl)c4)cc3)N=C2c2ccccc2)cc1 | 0.007 | 0.035 | 0.0045 |  |
| COc1ccc(N2C(=O)/C(=C/c3ccc(OCC(=O)Nc4ccccc4C)cc3)N=C2c2ccccc2)cc1 | 0.023 | 0.032 | 0.056 |  |
| COc1ccc(N2C(=O)/C(=C/c3ccc(OCC(=O)Nc4ccc(C)cc4)cc3)N=C2c2ccccc2)cc1 | 0.043 | 0.023 | 0.345 |  |
| COc1cccc(N2C(=O)/C(=C/c3ccc(OCC(=O)Nc4cccc(C)c4)cc3)N=C2c2ccccc2)c1 | 0.043 | 0.02 | 0.087 |  |
| COc1cccc(N2C(=O)/C(=C/c3ccc(OCC(=O)Nc4ccc(C)cc4)cc3)N=C2c2ccccc2)c1 | 0.0032 | 0.025 | 0.0045 | Ratio IC50 (Vero [10]): 20.16; Ratio IC50 (HT-29 [11]): 2.98; IC50 (MDA-MB-435): 0.23 µM; IC50 (A549 [4]): 6.5 µM; IC50 [5]: 9.4 µM; IC50 (HT-29 [6]): 5.8 µM; Ratio IC50 (Vero [12]): 1.85; IC50 (MCF7 [7]): 0.37 µM; Ratio IC50 (Vero [13]): 75.39; IC50 (K562): > 100 µM; Ratio IC50 (MCF7 [14]): 46.86; IC50 (Vero [15]): 17.3 µM; IC50 (T47D [8]): 0.67 µM; IC50 (PC-3): 0.86 µM; Ratio IC50 (T47D [16]): 25.88; Ratio IC50 (Vero [17]): 22.81; IC50 [9]: 0.76 µM; Ratio IC50 (A549 [18]): 2.66 |
| COc1ccc(N2C(=O)/C(=C/c3ccc(OCC(=O)Nc4cccc(OC)c4)cc3)N=C2c2ccccc2)cc1 | 0.021 | 0.021 | 0.023 |  |
| COc1cccc(N2C(=O)/C(=C/c3ccc(OCC(=O)Nc4ccccc4C)cc3)N=C2c2ccccc2)c1 | 0.044 | 0.043 | 0.066 |  |
| COc1ccc(N2C(=O)/C(=C/c3ccc(OCC(=O)Nc4ccc(Cl)cc4)cc3)N=C2c2ccccc2)cc1 | 0.0045 | 0.047 | 0.044 |  |
| COc1cccc(N2C(=O)/C(=C/c3ccc(OCC(=O)Nc4ccccc4)cc3)N=C2c2ccccc2)c1 | 0.054 | 0.065 | 0.035 |  |
| COc1ccc(N2C(=O)/C(=C/c3ccc(OCC(=O)Nc4ccccc4Cl)cc3)N=C2c2ccccc2)cc1 | 0.0035 | 0.024 | 0.0047 | Ratio IC50 (Vero [10]): 13.33; Ratio IC50 (HT-29 [11]): 2.93; IC50 (MDA-MB-435): 0.05 µM; IC50 (A549 [4]): 4.9 µM; IC50 [5]: 4.5 µM; IC50 (HT-29 [6]): 4.5 µM; Ratio IC50 (Vero [12]): 2.93; IC50 (MCF7 [7]): 0.53 µM; Ratio IC50 (Vero [13]): 264; IC50 (K562): > 100 µM; Ratio IC50 (MCF7 [14]): 24.9; IC50 (Vero [15]): 13.2 µM; IC50 (T47D [8]): 0.5 µM; IC50 (PC-3): 0.99 µM; Ratio IC50 (T47D [16]): 26.4; Ratio IC50 (Vero [17]): 101.54; IC50 [9]: 0.13 µM; Ratio IC50 (A549 [18]): 2.69 |
| COc1ccc(N2C(=O)/C(=C/c3ccc(OCC(=O)Nc4ccccc4OC)cc3)N=C2c2ccccc2)cc1 | 0.089 | 0.043 | 0.034 |  |
| COc1ccc(N2C(=O)/C(=C/c3ccc(OCC(=O)Nc4cccc(C)c4)cc3)N=C2c2ccccc2)cc1 | 0.078 | 0.089 | 0.077 |  |
| COc1cccc(N2C(=O)/C(=C/c3ccc(OCC(=O)Nc4ccccc4Cl)cc3)N=C2c2ccccc2)c1 | 0.0053 | 0.087 | 0.0056 |  |
